Test results published in JP2011219500A, “ムスカリンレセプターアンタゴニストとしての有用なビフェニル化合物” (Theravance Inc, priority 2011, dated 2011).
Read-outs that look alike come from different tables or passages of the source.

Key:
[1] = target: T1, hM3 receptor (hM3レセプター) (Homo sapiens, UniProt P20309); assay: Assay 2C: blockade of agonist-mediated calcium release via FLIPR assay; type: cell-based
T1 construct: expressed in transfected cells

[2] = target: T2, M3 muscarinic receptor subtype (M3ムスカリン性レセプターサブタイプ) (Homo sapiens, UniProt P20309); assay: Assay 1: radioligand binding assay ([3H]-NMS displacement)
T2 construct: expressed in transfected cells; membrane preparation

[3] = system: ACh-induced bronchoconstriction (ACh誘導性気管支収縮); assay: Assay 3: duration of bronchoprotection in guinea pig model of acetylcholine-induced bronchoconstriction; type: in vivo; details: inhalation, 1.5 h post-dose

T2 sequence (P20309 whole entry): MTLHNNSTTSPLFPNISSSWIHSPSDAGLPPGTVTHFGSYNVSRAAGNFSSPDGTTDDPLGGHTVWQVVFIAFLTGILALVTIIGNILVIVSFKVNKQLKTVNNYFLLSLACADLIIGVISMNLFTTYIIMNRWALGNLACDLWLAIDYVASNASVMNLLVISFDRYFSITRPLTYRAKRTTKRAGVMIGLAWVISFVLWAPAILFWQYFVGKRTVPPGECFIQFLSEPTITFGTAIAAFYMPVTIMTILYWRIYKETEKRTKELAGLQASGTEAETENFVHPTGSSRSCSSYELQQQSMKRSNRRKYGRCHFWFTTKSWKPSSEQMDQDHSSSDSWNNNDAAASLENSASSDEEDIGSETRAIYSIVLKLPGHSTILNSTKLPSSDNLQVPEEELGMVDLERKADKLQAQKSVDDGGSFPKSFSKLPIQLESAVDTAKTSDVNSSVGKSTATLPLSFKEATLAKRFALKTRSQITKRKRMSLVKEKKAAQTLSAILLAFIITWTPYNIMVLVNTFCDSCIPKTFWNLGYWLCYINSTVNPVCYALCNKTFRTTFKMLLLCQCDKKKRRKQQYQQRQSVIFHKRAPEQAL
T1 sequence (P20309 whole entry): as above

Row | Compound | Ki [1] [nM] | Ki [2] [nM] | PD2(50) [3] [µg/mL] | Ki ([2]; M3 subtype, [3H]-NMS displacement, CHO cell membranes, printed as less than about, read-out: Ki) [nM]
1 | CN(CCN1CCC(OC(=O)Nc2ccccc2-c2ccccc2)CC1)C(=O)c1ccc(CN2CCC(C(N)=O)CC2)cc1 [実施例1, ビフェニル−2−イルカルバミン酸 1−(2−{[4−(4−カルバモイルピペリジン−1−イルメチル)ベンゾイル]メチルアミノ}エチル)ピペリジン−4−イルエステル] | < 5 | < 5 | < 200 | 
2 | CCN(CCN1CCC(OC(=O)Nc2ccccc2-c2ccccc2)CC1)C(=O)c1ccc(CN2CCC(C(N)=O)CC2)cc1 [実施例2, ビフェニル−2−イルカルバミン酸 1−(2−{[4−(4−カルバモイルピペリジン−1−イルメチル)−ベンゾイル]エチルアミノ}エチル)ピペリジン−4−イルエステル] |  |  |  | < 5
